Patent publication US20210255193A1, “LYSINE REACTIVE PROBES AND USES THEREOF” (The Scripps Research Institute, priority 2017, published 2021)

Experiments:
[1] = biological target: T1, HK1 Hexokinase-1 (Homo sapiens, UniProt P19367); experiment: competitive isoTOP-ABPP; format: binding; settings: for isoTOP-ABPP ratio (R) at liganded lysine P19367_K510: 50 uM, in vitro, sol, 231
T1 construct: isoTOP-ABPP experiments performed in cell lysates (in vitro); endogenous in cells; host or cells: soluble proteome of human cancer cell lines (MDA-MB-231; Ramos and Jurkat also prepared)
T1 sequence (P19367 1-917): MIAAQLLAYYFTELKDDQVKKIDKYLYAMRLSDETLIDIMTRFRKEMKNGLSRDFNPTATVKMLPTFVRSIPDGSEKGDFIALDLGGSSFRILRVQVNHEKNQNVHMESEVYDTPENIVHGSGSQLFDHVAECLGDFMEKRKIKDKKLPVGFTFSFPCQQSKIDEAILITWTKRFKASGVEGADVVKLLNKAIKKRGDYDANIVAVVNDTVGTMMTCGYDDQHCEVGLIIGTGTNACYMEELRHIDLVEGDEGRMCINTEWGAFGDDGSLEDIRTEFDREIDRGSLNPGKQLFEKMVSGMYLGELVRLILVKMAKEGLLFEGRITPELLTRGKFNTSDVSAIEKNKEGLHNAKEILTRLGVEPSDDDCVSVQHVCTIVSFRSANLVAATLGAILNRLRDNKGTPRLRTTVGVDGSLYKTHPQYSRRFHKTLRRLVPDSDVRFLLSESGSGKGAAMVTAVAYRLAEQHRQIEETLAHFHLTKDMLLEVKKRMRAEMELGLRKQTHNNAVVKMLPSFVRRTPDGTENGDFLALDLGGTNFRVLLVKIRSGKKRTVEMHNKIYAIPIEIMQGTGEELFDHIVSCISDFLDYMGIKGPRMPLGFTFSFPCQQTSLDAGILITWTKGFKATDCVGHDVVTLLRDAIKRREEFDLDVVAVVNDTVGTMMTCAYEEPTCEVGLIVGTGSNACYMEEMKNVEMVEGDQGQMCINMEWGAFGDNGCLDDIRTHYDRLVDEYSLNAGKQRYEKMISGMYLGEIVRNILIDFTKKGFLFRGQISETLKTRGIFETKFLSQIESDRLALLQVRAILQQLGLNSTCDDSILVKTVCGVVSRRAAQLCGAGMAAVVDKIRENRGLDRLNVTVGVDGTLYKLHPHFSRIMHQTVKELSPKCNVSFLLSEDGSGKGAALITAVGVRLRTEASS
Description: (§1) In vitro covalent fragment treatment for isoTOP-ABPP. All compounds were made up as solutions in DMSO (100×) and were used at a final concentration of 50 μM for activated esters and 100 μM for guanidinylating agents. For each profiling sample, 0.5 ml of lysate was treated with 5 μl of the 100× compound stock solution or 5 μl of DMSO. Samples were treated with activated esters for
(§2) STP-alkyne labeling and click chemistry. For concentration-dependent reactivity measurements by isoTOP-ABPP, 0.5 ml proteome aliquots were treated at ambient temperature with 1 mM STP-alkyne 1 (5 μl of 100 mM stock in DMSO) and 0.1 mM STP alkyne 1 (5 μl of 10 mM stock in DMSO), respectively. For competitive isoTOP-ABPP, after in vitro fragment treatment (detailed above), the samples were labeled for 1 h at ambient temperature with 0.1 mM STP-alkyne 1 (5 μl of 10 mM stock in DMSO). Samples were conjugated by copper-mediated azide-alkyne cycloaddition (CuAAC) to either the light (1 mM STP-alkyne or fragment treated) or heavy (0.1 mM STP-alkyne or DMSO treated) TEV tags (10 μl of 5 mM stocks in DMSO, final concentration=100 μM) using tris(2-carboxyethyl)phosphine hydrochloride
(§3) R value calculation and processing. The ratios of light and heavy MS1 peaks for each unique peptide were quantified with a CIMAGE software using default parameters (3 MS1 acquisitions per peak and signal to noise threshold set to 2.5). For reactivity measurements by isoTOP-ABPP, the R value was calculated from the ratio of MS1 peak areas, comparing the 1 mM STP alkyne sample (light TEV tag) with the 0.1 mM STP alkyne sample (heavy TEV tag). For competitive isoTOP-ABPP, the R value was calculated from the ratio of MS1 peak areas, comparing the DMSO treated sample (heavy TEV tag) with the compound treated sample (light TEV tag). […] Ratios for unique peptide entries are calculated for each experiment; overlapping peptides with the same modified lysine (for example, different charge states, MudPIT chromatographic steps or tryptic termini) are grouped together and the median ratio is reported as the final ratio (R). The peptide ratios reported by CIMAGE were further filtered to ensure the removal or correction of low-quality ratios in each individual data set. The quality filters applied were the following: removal of half tryptic peptides; for ratios with high standard deviations from the median (90% of the median or above) the lowest ratio was taken instead of the median; removal of peptides with R=20 and only a single MS2 event triggered during the elution of the parent ion; manual annotation of all the peptides with ratios of 20, removing any peptides with low quality elution profiles that remained after the previous curation steps (only done for competitive isoTOP-ABPP).
(§4) Cross-data processing for fragment screening. For compound treated samples, biological replicates of the same condition were averaged, if the standard deviation was below 60% of the mean; otherwise, for lysines with at least one R value <4 for a particular compound, the lowest value of the ratio set was taken. For lysines, where all R values for a particular compound were ≥4, the average was reported. For peptides containing several possible modified lysines, the lysine with the highest number of quantification events was used for analysis and the remaining, redundant peptides were reported as alternative modification sites. Peptides included in the aggregate dataset (those used for further bioinformatics and statistical analyses) were required to have been quantified in 2 experiments for competitive isoTOP-ABPP. Lysines were categorized as liganded, if they had at least one ratio R≥4 (hit fragments). For liganded lysines with R=20 for all liganding events, lysines were required to have been quantified with R=20 in two separate experiments and were further required to have been quantified with R<20 in one additional experiment.

[2] = biological target: T2, HDHD3 Haloacid dehalogenase-like hydrolase domain-containing protein 3 (Homo sapiens, UniProt Q9BSH5); experiment: competitive isoTOP-ABPP; format: binding; settings: for isoTOP-ABPP ratio (R) at liganded lysine Q9BSH5_K15: 50 uM, in vitro, sol, 231
T2 construct: isoTOP-ABPP experiments performed in cell lysates (in vitro); endogenous in cells; host or cells: soluble proteome of human cancer cell lines (MDA-MB-231; Ramos and Jurkat also prepared)
T2 sequence (Q9BSH5 1-251): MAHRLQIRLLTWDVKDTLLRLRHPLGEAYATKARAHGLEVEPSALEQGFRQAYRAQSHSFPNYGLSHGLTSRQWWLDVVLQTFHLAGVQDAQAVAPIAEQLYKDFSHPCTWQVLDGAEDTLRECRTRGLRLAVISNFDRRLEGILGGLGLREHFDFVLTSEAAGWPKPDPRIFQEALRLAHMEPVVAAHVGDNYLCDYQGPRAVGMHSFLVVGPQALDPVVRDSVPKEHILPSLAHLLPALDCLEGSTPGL
Description: as §1, §2, §3, §4

SMILES | isoTOP-ABPP ratio (R) at liganded lysine P19367_K510 [1] | isoTOP-ABPP ratio (R) at liganded lysine Q9BSH5_K15 [2] | isoTOP-ABPP ratio, lysine P19367_K510 ([1]; 50 uM_231_sol_in vitro) | isoTOP-ABPP ratio, lysine Q9BSH5_K15 ([2]; 50 uM_231_sol_in vitro) | also measured
O=C(CCc1coc2cc(F)ccc2c1=O)Oc1ccc([N+](=O)[O-])cc1[N+](=O)[O-] [fragment 36, 2,4-Dinitrophenyl 3-(7-fluoro-4-oxo-4H-chromen-3-yl)propanoate] | 3.7 | 10.4 | – | – | –
O=C(Oc1ccc([N+](=O)[O-])cc1[N+](=O)[O-])c1ccc(-c2ccccc2)cc1 [fragment 37, 2,4-Dinitrophenyl [1,1′-biphenyl]-4-carboxylate] | 0.9 | 4.3 | – | – | –
O=C(CC12CC3CC(CC(C3)C1)C2)Oc1ccc([N+](=O)[O-])cc1[N+](=O)[O-] [fragment 38, 2,4-Dinitrophenyl 2-(adamantan-1-yl)acetate] | 1.7 | 1.2 | – | – | –
O=C(Oc1ccc([N+](=O)[O-])cc1[N+](=O)[O-])c1ccc(Oc2ccccc2)cc1 [fragment 39, 2,4-Dinitrophenyl 4-phenoxybenzoate] | 0.9 | 1.3 | – | – | –
CC(C)(C)OC(=O)NCCCC(=O)Oc1ccc([N+](=O)[O-])cc1[N+](=O)[O-] [fragment 41, 2,4-Dinitrophenyl 4-((tert-butoxycarbonyl)amino)butanoate] | 12.6 | 2.8 | – | – | –
O=C(Oc1ccc([N+](=O)[O-])cc1[N+](=O)[O-])C(c1ccccc1)(c1ccccc1)c1ccccc1 [fragment 42, 2,4-Dinitrophenyl 2,2,2-triphenylacetate] | 0.8 | 0.9 | – | – | –
CC(=O)Oc1ccc([N+](=O)[O-])cc1[N+](=O)[O-] [fragment 43, 2,4-Dinitrophenyl acetate] | 20.0 | 3.1 | – | – | –
N#Cc1ccc(C(=O)Oc2ccc([N+](=O)[O-])cc2[N+](=O)[O-])cc1 [fragment 44, 2,4-Dinitrophenyl 4-cyanobenzoate] | – | – | 1.2 | 20.0 | –
O=C(CCc1ccc2c(c1)OCO2)Oc1ccc([N+](=O)[O-])cc1[N+](=O)[O-] [fragment 45, 2,4-Dinitrophenyl 3-(benzo[d][1,3]dioxol-5-yl)propanoate] | – | – | 5.3 | 3.4 | –
O=C(ON1C(=O)CCC1=O)c1cc(C(F)(F)F)cc(C(F)(F)F)c1 [fragment 46, 3,5-Bis(trifluoromethyl)benzoic acid NHS ester] | – | – | 1.0 | 1.4 | –
O=C(Oc1c(F)c(F)c(C(F)(F)F)c(F)c1F)c1cc(C(F)(F)F)cc(C(F)(F)F)c1 [fragment 47, 2,3,5,6-Tetrafluoro-4-(trifluoromethyl)phenyl 3,5-bis(trifluoromethyl)benzoate] | – | – | 0.9 | 0.9 | –
O=C(Oc1c(F)c(F)cc(F)c1F)c1cc(C(F)(F)F)cc(C(F)(F)F)c1 [fragment 48, 2,3,5,6-Tetrafluorophenyl 3,5-bis(trifluoromethyl)benzoate] | – | – | 0.8 | 1.0 | –
COC(=O)NC(=NC(=O)OCC1c2ccccc2-c2ccccc21)n1cccn1 [fragment 49, N-Methoxycarbonyl-N′-9-fluorenylmethoxycarbonyl-pyrazole-1-carboxamidine] | – | – | – | – | isoTOP-ABPP ratio, lysine P19367_K510 ([1]; 100 uM_231_sol_in vitro): 1.1; isoTOP-ABPP ratio, lysine Q9BSH5_K15 ([2]; 100 uM_231_sol_in vitro): 3.5
CC(C)(C)OC(=O)N=C(NC(=O)OC(C)(C)C)n1cccn1 [fragment 50, reference compound] | – | – | – | – | isoTOP-ABPP ratio, lysine P19367_K510 ([1]; 100 uM_231_sol_in vitro): 1.0; isoTOP-ABPP ratio, lysine Q9BSH5_K15 ([2]; 100 uM_231_sol_in vitro): 2.8
NC(=O)c1cc(C(F)(F)F)cc(C(F)(F)F)c1 [fragment 51, reference compound] | – | – | 1.0 | 0.8 | –
